Here are results for two compounds from US20090192187A1, “DRY POWDER FORMULATION COMPRISING AN ANTIC[…]” (Chiesi Farmaceutici S.p.A., priority 2008, published 2009).

Structures can show the parent of a compound that is named as a salt.

For orientation: inhibition means the relative decrease from the control value, in per cent. Read a high inhibition as strong suppression.

The test system of data set [1] is Ach-induced increase in Penh (airway reactivity). The data set can be described thus: Bronchodilation activity: barometric plethysmography, acetylcholine challenge after nebulised compound. Type of data set: in vivo, guinea pig. Conditions: for bronchoprotective effect: twenty-four hours. The procedure:
Airway reactivity is measured using barometric plethysmography (Buxco, USA). Male guinea pigs (500-600 g) are individually placed in plexiglass chambers. After an acclimatisation period, animals are exposed to nebulised saline for 1 minute to obtain airway baseline reading. This is followed by a 1 minute challenge with nebulised acetylcholine (Ach)-2.5 mg/mL. After 60 minutes, 5 minute nebulisation of vehicle or the compound I′ in the range 2.5-250 μM are applied, and Ach challenge is then repeated after 2, 5, 24, 48 and 72 hours (h). Recording of pressure fluctuations in the chambers are taken for 5 minutes after each nebulisation and analysed to calculate Enhanced Pause (Penh). Airway reactivity is expressed as percentage increase in Penh compared with Penh values from the nebulisation of vehicle.

Data set [2] can be described thus: Estimation of lung levels after nebulisation. Type of data set: in vivo, guinea pig. The following applies: nebulisation with submaximal bronchodilator activity, 2 hours after treatment.
The next data set has as its target T1, M2 muscarinic receptors (Homo sapiens, UniProt P08172).
T1 sequence (P08172 1-466): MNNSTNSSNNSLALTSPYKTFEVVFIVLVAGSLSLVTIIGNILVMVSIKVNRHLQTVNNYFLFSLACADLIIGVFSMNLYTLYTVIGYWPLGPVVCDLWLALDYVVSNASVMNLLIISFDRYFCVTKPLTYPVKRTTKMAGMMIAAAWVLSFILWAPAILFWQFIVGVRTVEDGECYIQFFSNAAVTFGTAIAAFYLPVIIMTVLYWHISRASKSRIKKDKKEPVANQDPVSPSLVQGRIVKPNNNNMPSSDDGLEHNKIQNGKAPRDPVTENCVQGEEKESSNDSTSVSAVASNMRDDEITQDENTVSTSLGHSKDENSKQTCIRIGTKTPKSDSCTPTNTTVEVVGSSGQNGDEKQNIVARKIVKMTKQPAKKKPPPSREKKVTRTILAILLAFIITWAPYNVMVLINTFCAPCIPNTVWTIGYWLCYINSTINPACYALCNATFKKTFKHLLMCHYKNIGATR
Description: Duration of action / dissociation kinetics at M2 receptors. Conditions: compared with tiotropium bromide.

For a further data set, the system named is muscarinic receptors. Description: Receptor potency and duration of action compared with tiotropium bromide.

As for “3-[[[(3-fluorophenyl)[(3,4,5-trifluoro phenyl)methyl]amino]carbonyl]oxy]-1-[2-oxo-2-(2-thienyl)ethyl]-1-azoniabicyclo[2.2.2]octane [compound 1′]”, the results for the bronchoprotective effect in data set [1] (25 μM inhaled) and in data set [1] (50 μM inhaled) were 63.7±15.1% and 87.1±8.7%, respectively. The compound also returned an inhibition in data set [1] (50 μM inhaled, 48 hours) of 49.2±23.2%. Also, in data set [1] (50 μM nebulised, two hours after end of nebulisation), the “maximal effect, inhibition of Ach-induced increase in Penh” value turned out to be 99.6±0.4. The “effect (inhibition of Ach-induced increase in Penh)” value in data set [1] (250 μM inhaled, 48 hours) is 83.0±16.1%. Further, the residual activity in data set [1] (250 μM inhaled, 72 hours) amounted to 34.8±20.9%. Besides, the “time-course of the effect (duration of action)” value in data set [1] (increasing dose) was “increasing duration of action with increasing dose”. Besides, in data set [1] (inhalation of lower concentrations (below 25 μM)), the duration of effect was no more than 5 h. In data set [1] (two hours after end of nebulisation, 2.5-250 μM), the “dose dependence of inhibition of Ach-induced increase in Penh” value is recorded as “dose-dependently inhibited”. Further, the “retained dose in the target organ (lung)” value in data set [2] was “about 50 μg/kg”.

As for `O=C(C[N+]12CCC(CC1)C(OC(=O)N(Cc1cc(F)c(F)c(F)c1)c1cccc(F)c1)C2)c1cccs1` (stereo not shown) [chloride salt of compound 1, 3-[[[(3-fluorophenyl)[(3,4,5-trifluorophenyl)methyl]amino]carbonyl]oxy]-1-[2-oxo-2-(2-thienyl)ethyl]-1-azoniabicyclo[2.2.2]octane], the “duration of action on the M2 receptors” value on M2 muscarinic receptors was “significantly short-acting”. For the same compound, in the data set with muscarinic receptors, the duration of action entry is “equieffective to tiotropium bromide” and the receptor potency entry was “equieffective to tiotropium bromide”.
